Test results from US11400054B2, “Method for treating an autoimmune neurological disease and/or neurodegenerative disease and pharmaceutical formulations for a liquid dosage form and a controlled release dosage form” (INDUSTRIAL TECHNOLOGY RESEARCH INSTITUTE, priority 2017, dated 2022).

Test system: EAE induced mice
Experiment: Therapeutic administration experiment in EAE induced mice, EAE score
Assay type: in vivo, C57BL/6 mice
Settings: 100 mg/kg one time a day; 15, 50, 100 mg/kg BID; 14 days after onset; vs vehicle (FIGS. 8A, 8B)

| SMILES | EAE score (symptoms of EAE) |
| --- | --- |
| CC1=CCC(C(C)(C)O)CC1O (stereo not drawn) [SK0, (+)(−) trans-Sobrerol, reference compound] | significantly alleviating symptoms of EAE |

Same assay, conditions: 30, 100 mg/kg one time a day; 50, 100 mg/kg BID; 10-100 mg/kg TID; 14 days after onset; vs vehicle (FIGS. 5A-5C)

| SMILES | EAE score (symptoms of EAE) |
| --- | --- |
| CC1=CC[C@@H](C(C)(C)O)C[C@@H]1O [SK2, (−) trans-sobrerol] | significantly alleviating symptoms of EAE |

Test system: spinal cords of the EAE induced mice
Experiment: Histology of spinal cord lesions in EAE induced mice (H&E, Luxol fast blue)
Assay type: in vivo, C57BL/6 mice
Settings: 100 mg/kg three times a day, day 15 after onset; vs vehicle (FIG. 7B)
Procedure: The mice were euthanized at day 15 post to onset of EAE. Spinal cord was removed and fixed in 10% phosphate-buffered formaldehyde. Paraffin-embedded 3 μm-thick cross sections of spinal cord were stained with hematoxylin and eosin in order to confirm tissue lesion. Another slides were stained with Luxol fast blue for examination of demyelination. Lesions were evaluated based on demyelination, inflammation, axonal swelling and gliosis which are scored based on the criteria shown in Table 2: […]

| SMILES | axonal swelling in spinal cords |
| --- | --- |
| CC1=CC[C@@H](C(C)(C)O)C[C@@H]1O [SK2, (−) trans-sobrerol] | effectively alleviating |

Same assay, conditions: 100 mg/kg three times a day, day 15 after onset; vs vehicle (FIG. 7C)

| SMILES | inflammation in spinal cords |
| --- | --- |
| CC1=CC[C@@H](C(C)(C)O)C[C@@H]1O [SK2, (−) trans-sobrerol] | effectively alleviating |

Same assay, conditions: 100 mg/kg three times a day, day 15 after onset; vs vehicle (FIG. 7D)

| SMILES | gliosis in spinal cords |
| --- | --- |
| CC1=CC[C@@H](C(C)(C)O)C[C@@H]1O [SK2, (−) trans-sobrerol] | effectively alleviating |

Same assay, conditions: 100 mg/kg three times a day, day 15 after onset; vs vehicle (FIGS. 6, 7A)

| SMILES | demyelination in spinal cords |
| --- | --- |
| CC1=CC[C@@H](C(C)(C)O)C[C@@H]1O [SK2, (−) trans-sobrerol] | effectively alleviating |

Test system: MOG induced IL-2 secretion in splenocyte
Experiment: MOG induced IL-2 secretion in splenocyte isolated from mice of EAE model (ELISA)
Assay type: cell-based, C57BL/6 mice
Settings: Mus musculus, concentration 100 μM, 20 μg/ml MOG peptide, 48 hours
Procedure: (§1) EAE was induced in C57BL/6 mice. The mice were immunized on Day 0 by subcutaneous injection with 200 μg of myelin oligodendrocyte glycoprotein (MOG) in […] containing 400 μg of heat-killed Mycobaterium tuberculosis H37Ra. Pertussis toxin (500 ng) was intraperitoneally injected on Day 0 and Day 2 after the mice were immunized with the emulsion. The mice were sacrifice on Day 30 post-immunization. Spleens of the mice were harvest and then splenocytes were isolated and cultured in presence or absence of the 20 μg/ml MOG peptide in 10% FBS RPMI1640 medium. Testing compound was added to the culture and maintained at 37° C. 5% CO2 for 48 hours. The concentrations of IFN-γ and IL-2 in the supernatant of the culture were determined by ELISA according to the manufacturer's instructions.

| SMILES | inhibition at 100 µM |
| --- | --- |
| CC1(C)OC2CC1CC1OC21C (stereo not shown) [TMUS-0503-c2] | 13% |
| CO[C@H]1C[C@H](C(C)(C)O)CC=C1C [TMUS-0503-m1] | 21% |
| COc1ccc(C(=O)O[C@H]2C[C@H](C(C)(C)O)CC=C2C)cc1 [TMUS-0124-4e] | 59% |
| CC1CCC(C(C)(C)O)CC1=O (stereo not shown) [TMUS-0503-H2] | 16% |

Same assay, conditions: Mus musculus, concentration 200 μM, 20 μg/ml MOG peptide, 48 hours

| SMILES | inhibition at 200 µM |
| --- | --- |
| CC1=CC[C@@H](C(C)(C)O)C[C@@H]1O [SK2, (−) trans-sobrerol] | 0% |
| CCCCCC(=O)O[C@H]1C[C@H](C(C)(C)O)CC=C1C [TMUS-0124-4f] | 8% |
| CC1=CC[C@@H](C(C)(C)O)C[C@@H]1OC(=O)CCc1ccccc1 [TMUS-0124-4c] | 23% |
| CC1=CC[C@@H](C(C)(C)O)C[C@@H]1OC(=O)c1ccc([N+](=O)[O-])cc1 [TMUS-0124-4d] | 22% |
| CC1=CCC(C(C)(C)O)CC1=O (stereo not shown) [TMUS-0503-o1] | 40% |
| CC1=CC[C@H](C(C)(C)O)C[C@H]1O [SK1, (+) trans-Sobrerol] | 0% |

Same assay, conditions: Mus musculus, concentration 300 μM, 20 μg/ml MOG peptide, 48 hours

| SMILES | inhibition at 300 µM |
| --- | --- |
| CC1=CC[C@@H](C(C)(C)O)C[C@@H]1OCc1ccccc1 [TMUS-0503-b1] | 15% |
| CC1=CCC2CC1OC2(C)C (stereo not shown) [TMUS-0503-c1] | 22% |
| CC1=CCC(C(C)(C)O)CC1O (stereo not drawn) [SK0, (+)(−) trans-Sobrerol, reference compound] | 16% |
| C[C@@H]1CC[C@H](C(C)(C)O)C[C@H]1O [TMUS-0503-H4] | 19% |

Test system: EAE induced mice
Experiment: Prophylaxis administration experiment in EAE induced mice, EAE score
Assay type: in vivo, C57BL/6 mice
Settings: 100 mg/kg one time a day from Day 7 after induction, 14 days; vs vehicle (FIG. 10)

| SMILES | EAE score (symptoms of EAE) |
| --- | --- |
| CC1=CC[C@@H](C(C)(C)O)C[C@@H]1O [SK2, (−) trans-sobrerol] | significantly alleviating symptoms of EAE |

Test system: LPS-induced IL-6 expression in BV-2 cells
Experiment: LPS-induced IL-6 expression in BV-2 cells (IL-6 ELISA)
Assay type: cell-based
Settings: Mus musculus, compound 1 hour then LPS 100 ng/mL, 24 hours
Procedure: (§2) BV-2 cells (8×10^3 cells/mL) were seeded in a 96-well plate cultured under 37° C., 5% CO2 overnight. The cells were divided into a naïve group (without any treatment), a control group (only treated with LPS) and experimental groups (treated with LPS and a testing compound).
(§3) The supernatant in the well was removed. After that, different concentrations of a testing compound was added to the cells to react with the cells for 1 hour (culture medium was added to the cells for a control group), and then LPS (100 ng/mL) was added to the cell.
After reacting for 24 hours, the supernatant in the plate was taken and IL-6 expressing amount was detected by Mouse IL-6 ELISA Ready-SET-Go (Invitrogen; Cat. No. 88-7064-88) according to the manufacturer's recommended procedure.
(§4) CC50 value for cell viability of a testing compound and IC50 value for IL-6 expression of a testing compound were calculated based on cell viabilities at different concentrations of the testing compound and IL-6 expression amounts of the cells at different concentrations of the testing compound, respectively.

| SMILES | IC50 |
| --- | --- |
| CC1=CC[C@@H](C(C)(C)O)C[C@@H]1O [SK2, (−) trans-sobrerol] | 183 ± 21.8 µM |
| CCCCCC(=O)O[C@H]1C[C@H](C(C)(C)O)CC=C1C [TMUS-0124-4f] | 38 µM |
| CC1(C)OC2CC1CC1OC21C (stereo not shown) [TMUS-0503-c2] | 30 to 100 µM |
| CO[C@H]1C[C@H](C(C)(C)O)CC=C1C [TMUS-0503-m1] | < 10 µM |
| CC1=CC[C@@H](C(C)(C)O)C[C@@H]1OCc1ccccc1 [TMUS-0503-b1] | < 10 µM |
| CC1=CC[C@@H](C(C)(C)O)C[C@@H]1OC(=O)CCc1ccccc1 [TMUS-0124-4c] | 38.2 µM |
| CC1=CCC2CC1OC2(C)C (stereo not shown) [TMUS-0503-c1] | 30 to 100 µM |
| C[C@H]1CC[C@H](C(C)(C)O)C[C@H]1O [TMUS-0503-H3] | 30 to 100 µM |
| CC1=CC[C@@H](C(C)(C)O)C[C@@H]1OC(=O)c1ccc([N+](=O)[O-])cc1 [TMUS-0124-4d] | 48.1 µM |
| CC1=CCC(C(C)(C)O)CC1=O (stereo not shown) [TMUS-0503-o1] | < 10 µM |
| COc1ccc(C(=O)O[C@H]2C[C@H](C(C)(C)O)CC=C2C)cc1 [TMUS-0124-4e] | 50.8 µM |
| C[C@@H]1CC[C@H](C(C)(C)O)C[C@H]1O [TMUS-0503-H4] | 30 to 100 µM |
| CC1CCC(C(C)(C)O)CC1=O (stereo not shown) [TMUS-0503-H2] | < 10 µM |

Test system: MOG induced IFN-γ secretion in splenocyte
Experiment: MOG induced IFN-γ secretion in splenocyte isolated from mice of EAE model (ELISA)
Assay type: cell-based, C57BL/6 mice
Settings: Mus musculus, concentration 100 μM, 20 μg/ml MOG peptide, 48 hours
Procedure: as §1

| SMILES | inhibition at 100 µM |
| --- | --- |
| CC1(C)OC2CC1CC1OC21C (stereo not shown) [TMUS-0503-c2] | 31% |
| CO[C@H]1C[C@H](C(C)(C)O)CC=C1C [TMUS-0503-m1] | 17% |
| COc1ccc(C(=O)O[C@H]2C[C@H](C(C)(C)O)CC=C2C)cc1 [TMUS-0124-4e] | 86% |
| CC1CCC(C(C)(C)O)CC1=O (stereo not shown) [TMUS-0503-H2] | 33% |

Same assay, conditions: Mus musculus, concentration 200 μM, 20 μg/ml MOG peptide, 48 hours

| SMILES | inhibition at 200 µM |
| --- | --- |
| CC1=CC[C@@H](C(C)(C)O)C[C@@H]1O [SK2, (−) trans-sobrerol] | 34% |
| CCCCCC(=O)O[C@H]1C[C@H](C(C)(C)O)CC=C1C [TMUS-0124-4f] | 59% |
| CC1=CC[C@@H](C(C)(C)O)C[C@@H]1OC(=O)CCc1ccccc1 [TMUS-0124-4c] | 78% |
| CC1=CC[C@@H](C(C)(C)O)C[C@@H]1OC(=O)c1ccc([N+](=O)[O-])cc1 [TMUS-0124-4d] | 79% |
| CC1=CCC(C(C)(C)O)CC1=O (stereo not shown) [TMUS-0503-o1] | 56% |
| CC1=CC[C@H](C(C)(C)O)C[C@H]1O [SK1, (+) trans-Sobrerol] | 24% |

Same assay, conditions: Mus musculus, concentration 300 μM, 20 μg/ml MOG peptide, 48 hours

| SMILES | inhibition at 300 µM |
| --- | --- |
| CC1=CC[C@@H](C(C)(C)O)C[C@@H]1OCc1ccccc1 [TMUS-0503-b1] | 20% |
| CC1=CCC2CC1OC2(C)C (stereo not shown) [TMUS-0503-c1] | 23% |
| CC1=CCC(C(C)(C)O)CC1O (stereo not drawn) [SK0, (+)(−) trans-Sobrerol, reference compound] | 10% |
| C[C@@H]1CC[C@H](C(C)(C)O)C[C@H]1O [TMUS-0503-H4] | 42% |

Test system: not listed separately
Experiment: Cell viability of BV-2 cells (MTT)
Assay type: cell-based
Settings: mouse, LPS 100 ng/mL
Procedure: as §2, §3
Moreover, 50 μl of culturing medium containing MTT (0.5 mg/mL) was added to the cell part in the plate and cultured under 37° C. and 5% CO2 for 90 minutes, and then 150 μL DMSO was added to the plate and the plate was shaken for 5-10 minutes. Finally, OD570 was read by a continuous wavelength microplate analyzer, and cell viability was calculated using the following formula: Cell viability (%)=(OD value of the experimental group/OD value of the control group)×100.
as §4

| SMILES | CC50 at 24 h |
| --- | --- |
| CC1=CC[C@@H](C(C)(C)O)C[C@@H]1O [SK2, (−) trans-sobrerol] | > 200 µM |
| CCCCCC(=O)O[C@H]1C[C@H](C(C)(C)O)CC=C1C [TMUS-0124-4f] | > 100 µM |
| CC1(C)OC2CC1CC1OC21C (stereo not shown) [TMUS-0503-c2] | > 100 µM |
| CO[C@H]1C[C@H](C(C)(C)O)CC=C1C [TMUS-0503-m1] | > 100 µM |
| CC1=CC[C@@H](C(C)(C)O)C[C@@H]1OCc1ccccc1 [TMUS-0503-b1] | > 100 µM |
| CC1=CC[C@@H](C(C)(C)O)C[C@@H]1OC(=O)CCc1ccccc1 [TMUS-0124-4c] | > 100 µM |
| CC1=CCC2CC1OC2(C)C (stereo not shown) [TMUS-0503-c1] | > 100 µM |
| C[C@H]1CC[C@H](C(C)(C)O)C[C@H]1O [TMUS-0503-H3] | > 100 µM |
| CC1=CC[C@@H](C(C)(C)O)C[C@@H]1OC(=O)c1ccc([N+](=O)[O-])cc1 [TMUS-0124-4d] | > 100 µM |
| CC1=CCC(C(C)(C)O)CC1=O (stereo not shown) [TMUS-0503-o1] | > 100 µM |
| COc1ccc(C(=O)O[C@H]2C[C@H](C(C)(C)O)CC=C2C)cc1 [TMUS-0124-4e] | > 100 µM |
| C[C@@H]1CC[C@H](C(C)(C)O)C[C@H]1O [TMUS-0503-H4] | > 100 µM |
| CC1CCC(C(C)(C)O)CC1=O (stereo not shown) [TMUS-0503-H2] | > 100 µM |
